From patent publication US20230276835A1, “SAVORY TASTE ENHANCEMENT VIA TRANSMEMBRANE REGION BINDING” (Firmenich Incorporated, priority 2020, published 2023)

How the values were obtained:
[1] = Sensory testing: paired choice of greater umami taste; format: in vivo, human; conditions: 16 mM MSG solution vs 4 ppm S807 solution, 32 selections; for number of selections favoring the solution as having greater umami taste: 16 panelists, 2 reps
Description: Of the 32 selections, 19 favored the MSG solution and 13 favored the S807 solution.

T1R1/T1R3 = molecular target: T1, T1R1/T1R3 (Homo sapiens, UniProt Q7RTX1); test: T1R1/T1R3 assay (cells expressing hT1R1 in the presence of hT1R3); format: cell-based
T1 construct: expressed in transfected cells
T1 sequence (Q7RTX1 21-841): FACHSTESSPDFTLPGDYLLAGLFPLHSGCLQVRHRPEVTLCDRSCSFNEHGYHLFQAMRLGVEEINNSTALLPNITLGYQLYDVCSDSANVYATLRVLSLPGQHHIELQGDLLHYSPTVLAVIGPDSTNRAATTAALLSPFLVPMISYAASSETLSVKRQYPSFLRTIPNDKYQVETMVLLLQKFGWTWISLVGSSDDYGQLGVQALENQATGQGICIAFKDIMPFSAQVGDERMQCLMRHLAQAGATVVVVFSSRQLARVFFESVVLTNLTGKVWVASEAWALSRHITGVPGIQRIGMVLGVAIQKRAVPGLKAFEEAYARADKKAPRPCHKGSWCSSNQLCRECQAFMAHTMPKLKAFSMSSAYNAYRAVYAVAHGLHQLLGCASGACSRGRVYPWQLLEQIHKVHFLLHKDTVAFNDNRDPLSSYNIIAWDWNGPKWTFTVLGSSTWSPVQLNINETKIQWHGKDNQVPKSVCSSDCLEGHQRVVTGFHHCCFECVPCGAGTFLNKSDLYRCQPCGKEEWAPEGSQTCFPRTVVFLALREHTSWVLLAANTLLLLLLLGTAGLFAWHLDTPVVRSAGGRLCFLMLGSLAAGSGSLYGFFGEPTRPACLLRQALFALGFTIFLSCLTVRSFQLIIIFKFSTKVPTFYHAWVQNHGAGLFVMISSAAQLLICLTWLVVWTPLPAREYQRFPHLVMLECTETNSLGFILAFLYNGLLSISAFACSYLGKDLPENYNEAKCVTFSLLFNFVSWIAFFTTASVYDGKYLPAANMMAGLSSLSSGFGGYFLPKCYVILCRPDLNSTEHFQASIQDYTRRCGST
T1 sequence (Q7RTX0 21-852 C757R partner): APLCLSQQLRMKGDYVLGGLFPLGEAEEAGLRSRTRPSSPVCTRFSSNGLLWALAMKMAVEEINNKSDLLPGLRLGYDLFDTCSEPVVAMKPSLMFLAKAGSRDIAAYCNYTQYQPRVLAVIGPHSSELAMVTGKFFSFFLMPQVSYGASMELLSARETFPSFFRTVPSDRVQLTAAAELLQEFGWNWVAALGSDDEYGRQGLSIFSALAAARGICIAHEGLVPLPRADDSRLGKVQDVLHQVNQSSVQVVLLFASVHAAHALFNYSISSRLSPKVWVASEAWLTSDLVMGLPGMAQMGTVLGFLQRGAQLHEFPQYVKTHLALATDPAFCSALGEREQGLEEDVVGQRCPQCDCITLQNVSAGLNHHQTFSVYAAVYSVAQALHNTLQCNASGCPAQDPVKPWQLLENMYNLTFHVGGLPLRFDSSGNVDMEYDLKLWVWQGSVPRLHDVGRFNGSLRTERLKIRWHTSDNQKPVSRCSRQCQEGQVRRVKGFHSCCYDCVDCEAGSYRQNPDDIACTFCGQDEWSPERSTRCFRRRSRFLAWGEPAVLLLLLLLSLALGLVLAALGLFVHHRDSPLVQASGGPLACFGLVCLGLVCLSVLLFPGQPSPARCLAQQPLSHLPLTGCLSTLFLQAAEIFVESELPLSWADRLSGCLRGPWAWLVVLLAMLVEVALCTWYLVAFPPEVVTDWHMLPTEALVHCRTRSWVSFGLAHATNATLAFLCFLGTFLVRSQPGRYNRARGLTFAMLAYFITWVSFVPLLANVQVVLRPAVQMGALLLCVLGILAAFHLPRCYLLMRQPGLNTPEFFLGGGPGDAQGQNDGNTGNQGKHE
Description: To implement the identification of hT1R1-TMD modulators, cells transiently or stably expressing hT1R1 (T1R1) in the presence of hT1R3 (T1R3) are stimulated with library compounds. Similarly, the same compounds are screened in a GTPγS binding assay utilizing membranes expressing transmembrane domain (TMD) of hT1R1 as described in Zhang et al., Proc. Nat'l Acad. Sci., vol. 105, pp. 20930-20934 (2008). Compounds active exclusively active in the two assays are then prioritized and evaluated in sensory for the detection of an umami note on their own and synergy in the presence of MSG or MSG+IMP.
The compound N-(heptan-4-yl)-benzo[d][1,3]dioxole-5-carboxamide (S807) was used as a test compound in a T1R1/T1R3 assay, both alone and in the presence of monosodium glutamate (MSG).
In a similar way, the T1R1/T1R3 assay was used to measure the activity of monosodium glutamate (MSG), inosine 5′monophosphate (IMP), S807, MSG+IMP, 5807+MSG, 5807+IMP, and 5807+MSG+IMP.

Compound	number of selections favoring the solution as having greater umami taste [1]	preference for MSG versus S807 (umami taste) [1]	agonist activity on T1R1/T1R3 (T1R1/T1R3; S807 alone, FIG. 2)	enhancement of the MSG effect on T1R1/T1R3 (T1R1/T1R3; in the presence of MSG, FIG. 2)	effect in combination with MSG (percent activity, FIG. 3) (T1R1/T1R3; with MSG)	effect in combination with MSG and IMP (percent activity, FIG. 3) (T1R1/T1R3; with the combination of MSG and IMP)
N[C@@H](CCC(=O)O)C(=O)[O-].[Na+] [MSG, monosodium glutamate, reference compound]	19	–	–	–	–	–
CCCC(CCC)NC(=O)c1ccc2c(c1)OCO2 [S807, N-(heptan-4-yl)-benzo[d][1,3]dioxole-5-carboxamide]	13	no statistically significant preference	agonist activity	enhancement properties on the MSG effect	synergistic effect	synergistic effect
